Reference: patent US20240124456A1, “AZA-ERGOLINE DERIVATIVE AND PREPARATION METHOD THEREFOR AND APPLICATION THEREOF” (SHANGHAITECH UNIVERSITY, priority 2021, published 2024)

Key:
[1] = target: T1, dopamine D2 receptors (Homo sapiens (Human), UniProt P14416); test: Radioligand competition binding, affinity for dopamine D2 receptors ([3H]-Methylspiperone); settings: [3H]-Methylspiperone (0.3-0.5 nM), HEK-293T membranes; for Ki: I-1 to 19 n=3, I-20 to 27 single determination; for Affinity pKi ± SEM: n=3
Experimental: A 10 cm diameter dish was used for transfection with 10 ng of the dopamine D2 receptors and 40 μL of PEI. After 48 hours, the 10 cm dish was taken out from the cell culture room and the cultured cells had expressed the dopamine D2 receptors. A vacuum pump was used to suck off the culture medium, 3 mL of lysis buffer (50 mM Tris hydrochloric acid buffer, pH 7.4) was added to each well, and the cells were placed in a 4° C. freezer for 10 minutes. After the cells were detached, the cells were transferred to a 15 mL centrifuge tube and centrifuged at 1500 rpm for 5 minutes at 4° C., and the supernatant was discarded. The cell pellet was transferred to a tissue homogenizer, and 3 mL of lysis buffer was added and fully ground until the cells were broken. Then, cell suspension was equally divided into several EP tubes, centrifuged at 4° C. and 12000 rpm for 5 min, and the supernatant was discarded. The precipitate was the cell membrane component containing the dopamine D2 receptors and stored at −80° C.
First, a standard binding buffer (50 mM HEPES, 50 mM NaCl, 5 mM MgCl2, 0.5 mM EDTA, pH 7.4) was added to the cell membrane component containing the dopamine D2 receptors, and the cell membrane was disrupted and resuspended with an electric tissue homogenizer. 30 μL of membrane protein suspension was added to each well of a 96-well plate. Then, 30 μL of different drugs were added to the 96-well plate from left to right to ensure that the final drug concentrations were 10^−5 M, 10^−6 M, 10^−7 M, 10^−8 M, 10^−9 M and 0 M, with two replicates per treatment. Next, 30 μL [^3H]-N-Methylspiperone was added to each well of the 96-well plate, and the plate was incubated for 2 hours at room temperature in the dark. The unbound isotopes were removed by Whatman GF/C filter membrane and vacuum pump, and the isotopes bound to the receptors were detected by MicroBeta isotope liquid scintillation counter.
The affinity of the compounds of the present invention for the dopamine D2 receptors was determined by the method of radioligand competition experiment. In the first step, a cell membrane component containing specific dopamine D2 receptors was prepared. A10 cm dish was used for transfection with 10 ng of the dopamine D2 receptors and 40 μL of PEI. After 48 hours, the 10 cm dish was taken out from the cell culture room and the cultured cells had expressed the dopamine D2 receptors. A vacuum pump was used to suck off the culture medium, 3 mL of lysis buffer was added to each well, and the cells were placed in a 4° C. freezer for 10 minutes. After the cells were detached, the cells were transferred to a 15 mL centrifuge tube and centrifuged at 1500 rpm for 5 minutes at 4° C., and the supernatant was discarded. The cell pellet was transferred to a tissue homogenizer, and 3 mL of lysis buffer was added and fully ground until the cells were broken. Then, cell suspension was equally divided into several EP tubes, centrifuged at 4° C. and 12000 rpm for 5 min, and the supernatant was discarded. The precipitate was the cell membrane component containing the dopamine D2 receptors. […] First, a standard binding buffer was added to the cell membrane component containing the dopamine D2 receptors, and the cell membrane was disrupted and resuspended with an electric tissue homogenizer. 30 μL of membrane protein suspension was added to each well of a 96-well plate. Then, 30 μL of different drugs were added to the 96-well plate from left to right to ensure that the final drug concentrations were 10^−5 M, 10^−6 M, 10^−7 M, 10^−8 M, 10^−9 M and 0 M, with two replicates per treatment. Next, 30 μL [^3H]-Methylspiperone was added to each well of the 96-well plate. The plate was incubated for 2 hours at room temperature in the dark. Detection. The machine reading value reflected the amount of [^3H]-Methylspiperone bound on the membrane, and after further data processing, the affinity Ki value of different compounds for dopamine D2 receptors was obtained.

[2] = target: T1, dopamine D2 receptors; test: β-arrestin2 recruitment BRET, dopamine D2 receptor functional activity; type: cell-based; settings: for Emax: read-out: β-arrestin2 BRET Emax % ± SEM
Experimental: To examine the downstream f3-arrestin2 signaling pathway mediated by dopamine D2 receptors, 6 cm dish was used for transfection with 500 […] of dopamine D2 receptors fused to seaweed luciferase (D2-Rluc), 500 μg of G protein-coupled receptor kinase 2 (GRK2), 2500 μg of β-arrestin2 fused to green fluorescent protein (GFP2-ARRB2) and 14 μL of transfection reagent PEI. The next day, the overgrown cells were digested and plated a 96-well plate at the amount of cells contained in a 6 cm culture dish with overgrown cells, and 100 μL of culture medium was added to each well. On the third day, the drugs were added for test.
(§1) To examine downstream G-protein signaling pathway mediated by dopamine D2 receptors, on the first day, 6 cm dish was used for transfection with 1μg of dopamine D2 receptors, 1μg of Gαi1 containing C-terminal seaweed luciferase (GGαi1-Rluc), 1 μg of […], 1 μg of Gγ9 containing C-terminal green fluorescent protein (Gγ9-GFP) and 16 μL of PEI. At the same time, in order to examine the downstream f3-arrestin2 signaling pathway mediated by dopamine D2 receptors, on the first day, 6 cm dish was used for transfection with 500 μg of dopamine D2 receptors containing C-terminal seaweed luciferase (D2-Rluc), 500 μg of G protein-coupled receptor kinase 2 (GRK2), 2500 μg of […] containing N-terminal green fluorescent protein (GFP2-ARRB2) and 14 μL of PEI. The next day, the overgrown cells were digested and plated a 96-well plate at the amount of cells contained in a 6 cm culture dish with overgrown cells, and 100 μL of culture medium was added to each well. On the third day, the drugs were added for test. The 96-well plate was taken out from the cell culture room to remove the culture medium, 40 μL of the substrate coelenterazine 400a (final concentration of 5 μM) was added to each well, and then 20 μL of different drugs were added in turn from left to right to ensure that the final concentration of the drugs decreased gradually from bottom to top, and each treatment was repeated twice. Finally, the prepared samples were loaded on machine for test. The machine reading value reflected the intracellular β-arrestin2 on the membrane and the dissociation of G protein trimer. The former indicated the degree of activation of the β-arrestin2 signaling pathway downstream of the dopamine D2 receptors, and the latter indicated the degree of activation of the G protein signaling pathway downstream of the dopamine D2 receptors.

[3] = target: T1, dopamine D2 receptors; test: G protein Gαi1-γ9 dissociation BRET, dopamine D2 receptor functional activity; type: cell-based; settings: for Emax: read-out: Gai1 BRET Emax % ± SEM
Experimental: To examine downstream G protein signaling mediated by dopamine D2 receptors, 6 cm dish was used for transfection with 1μg of dopamine D2 receptors, 1μg of Gαi1 fused to seaweed luciferase (Gαi1-Rluc), 1 μg of Gβ3, 1 μg of Gγ9 fused to green fluorescent protein (Gγ9-GFP) and 16 μL of transfection reagent PEI. […] On the third day, the drugs were added for test.
as §1

[4] = HEK-293T, I-1 to 19 n=3, I-20 to 27 single determination, read-out: β-arrestin2 BRET EC50
[5] = relative to the endogenous ligand dopamine
[6] = HEK-293T, I-1 to 19 n=3, I-20 to 27 single determination, read-out: Gai1 BRET EC50
[7] = antagonistic activity, single determination, read-out: Gai1 BRET EC50 (antagonistic activity)

T1 sequence (P14416 whole entry): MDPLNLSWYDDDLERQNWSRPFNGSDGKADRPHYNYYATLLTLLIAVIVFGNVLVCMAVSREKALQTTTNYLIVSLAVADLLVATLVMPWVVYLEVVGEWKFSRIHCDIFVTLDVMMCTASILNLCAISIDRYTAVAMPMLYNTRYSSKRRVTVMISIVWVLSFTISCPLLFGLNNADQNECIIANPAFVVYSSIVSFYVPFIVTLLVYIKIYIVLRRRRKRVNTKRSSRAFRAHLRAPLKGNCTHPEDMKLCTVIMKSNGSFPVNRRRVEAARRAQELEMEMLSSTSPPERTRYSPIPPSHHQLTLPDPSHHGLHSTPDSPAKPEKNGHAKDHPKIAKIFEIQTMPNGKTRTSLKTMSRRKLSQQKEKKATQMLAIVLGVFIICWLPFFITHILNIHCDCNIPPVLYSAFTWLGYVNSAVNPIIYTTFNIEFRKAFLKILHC

Row | Structure (SMILES) | Ki [1] [nM] | Emax [2, 5] [%] | EC50 [3, 6] [nM] | Emax [3, 5] [%] | EC50 [2, 4] [nM] | other results
1 | O=C(N[C@H]1CC[C@H](CCN2CCN3c4cccc5[nH]cc(c45)CC3C2)CC1)c1ccccc1 (stereo partly drawn) [Compound I-14, N-(4-(2-(4,6,6a,7,9,10-hexahydro-8H-pyrazino[1,2-a]pyrrolo[4,3,2-de]quinolin-8-yl)ethyl)trans-cyclohexyl)benzamide] | 40.7 | 41 | 1.67 | 72 | 27.7 | Affinity pKi ± SEM [1]: (7.39 ± 0.05)
2 | O=C(N[C@H]1CC[C@H](CCN2CCN3c4cccc5[nH]cc(c45)CC3C2)CC1)c1cc2ccccc2[nH]1 (stereo partly shown) [Compound I-13] | 16.3 | – | 6.74 | – | 146 | Affinity pKi ± SEM [1]: (7.79 ± 0.07); β-arrestin2 BRET pEC50 ± SEM ([2]; n=3): 6.84 ± 0.12; β-arrestin2 BRET Emax % ± SEM [2, 5]: 48 ± 8%; Gai1 BRET pEC50 ± SEM ([3]; n=3): 8.17 ± 0.08; Gai1 BRET Emax % ± SEM [3, 5]: 92 ± 3%
3 | O=C(N[C@H]1CC[C@H](CCN2CCN3c4cccc5[nH]cc(c45)CC3C2)CC1)N1CCCCC1 (stereo partly drawn) [Compound I-12, N-(4-(2-(4,6,6a,7,9,10-hexahydro-8H-pyrazino[1,2-a]pyrrolo[4,3,2-de]quinolin-8-yl)ethyl)trans-cyclohexyl)piperidine-1-carboxamide] | 27.1 | 89 | 17.4 | 92 | 20.4 | Affinity pKi ± SEM [1]: (7.57 ± 0.03)
4 | c1cc2c3c(c[nH]c3c1)CC1CN(CCCCOc3ccc4scnc4c3)CCN21 (stereo not shown) [Compound I-3] | – | 93 | 43.6 | 92 | 64.6 | –
5 | Cn1cc2c3c(cccc31)N1CCN(CCCC(O)c3ccc(F)cc3)CC1C2 (stereo not shown) [Compound I-27, 1-(4-fluorobenzene)-4-(4-methyl-4,6,6a,7,9,10-hexahydro-8H-pyrazino[1,2-a]pyrrolo[4,3,2-de]quinolin-8-yl)-1-butanol] | – | – | – | – | – | EC50 ([2]; antagonistic activity, single determination, read-out: β-arrestin2 BRET EC50 (antagonistic activity)): 1540 nM; EC50 [3, 7]: 1200 nM
6 | O=C(N[C@H]1CC[C@H](CCN2CCN3c4cccc5[nH]cc(c45)CC3C2)CC1)N1CCCC1 (stereo partly drawn) [Compound I-11, N-(4-(2-(4,6,6a,7,9,10-hexahydro-8H-pyrazino[1,2-a]pyrrolo[4,3,2-de]quinolin-8-yl)ethyl)trans-cyclohexyl)tetrahydropyrrole-l-carboxamide] | – | 87 | 9.33 | 91 | 11.2 | –
7 | Cn1cc2c3c(cccc31)N1CCN(CCCC(=O)c3ccc(F)cc3)CC1C2 (stereo not shown) [Compound I-26, 1-(4-fluorobenzene)-4-(4-methyl-4,6,6a,7,9,10-hexahydro-8H-pyrazino[1,2-a]pyrrolo[4,3,2-de]quinolin-8-yl)-1-butanone] | – | – | – | – | – | β-arrestin2 BRET EC50 ([2]; HEK-293T, I-1 to 19 n=3, I-20 to 27 single determination): Inactive; EC50 [3, 7]: 7620 nM
8 | OC(CCCN1CCN2c3cccc4[nH]cc(c34)CC2C1)c1ccc(F)cc1 (stereo not shown) [Compound I-25, 1-(4-fluorobenzene)-4-(4,6,6a,7,9,10-hexahydro-8H-pyrazino[1,2-a]pyrrolo[4,3,2-de]quinolin-8-yl)-1-butanol] | – | 30 | 7.48 | 29 | 9.6 | –
9 | c1cc2c3c(c[nH]c3c1)CC1CN(CCCOc3ccc4c(c3)OCO4)CCN21 (stereo not shown) [Compound I-9, 8-(3-(benzo[d][1,3]dioxo1-5-yloxy)propyl)-6,6a,7,8,9,10-hexahydro-4H-pyrazino[1,2-a]pyrrolo[4,3,2-de]quinoline] | – | 96 | 166 | 92 | 148 | –

Second part, led by results:

Row | Ki [1] [nM] | Emax [2, 5] [%] | EC50 [3, 6] [nM] | Emax [3, 5] [%] | Structure (SMILES) | EC50 [2, 4] [nM] | other results
10 | 100 | 36 | 54.8 | 38 | Cn1cc2c3c(cccc31)N1CCN(C/C=C/COc3ccc4ccc(=O)[nH]c4c3)CC1C2 (stereo not shown) [Compound I-23, (E)-7-((4-(4-methyl-4,6,6a,7,9,10-hexahydro-8H-pyrazino[1,2-a]pyrrolo[4,3,2-de]quinolin-8-yl)-2-buten-1-yl)oxy)quinolin-2(1H)-one] | 294 | –
11 | – | 90 | 7.71 | 77 | O=c1ccc2ccc(OC/C=C/CN3CCN4c5cccc6[nH]cc(c56)CC4C3)cc2[nH]1 (stereo not shown) [Compound I-21] | 61.9 | –
12 | 8.87 | 89 | 1 | 95 | O=c1ccc2ccc(OCCCCN3CCN4c5cccc6[nH]cc(c56)CC4C3)cc2[nH]1 (single isomer, unassigned; (+)) [(+)-I-2] | – | EC50 ([2]; n=3, read-out: β-arrestin2 BRET pEC50 ± SEM (converted)): 15.8 nM; EC50 ([3]; n=3, read-out: Gai1 BRET pEC50 ± SEM (converted)): 0.851 nM
13 | – | 26 | 11.4 | 38 | O=C(CCCN1CCN2c3cccc4[nH]cc(c34)CC2C1)c1ccc(F)cc1 (stereo not shown) [Compound I-24, 1-(4-fluorobenzene)-4-(4,6,6a,7,9,10-hexahydro-8H-pyrazino[1,2-a]pyrrolo[4,3,2-de]quinolin-8-yl)-1-butanone] | 10.4 | –
14 | – | 90 | 58.9 | 84 | CN(C)C(=O)N[C@H]1CC[C@H](CN2CCN3c4cccc5[nH]cc(c45)CC3C2)CC1 (stereo partly shown) [Compound I-16] | 40.7 | –
15 | – | 88 | 10.2 | 74 | O=C1CCc2ccc(OC/C=C/CN3CCN4c5cccc6[nH]cc(c56)CC4C3)cc2N1 (stereo not shown) [Compound I-20] | 98.2 | –
